# Results: article PMC9926234, “Iterative computational design and crystallographic screening identifies potent inhibitors targeting the Nsp3 macrodomain of SARS-CoV-2” (Proceedings of the National Academy of Sciences of the …, 2023)
# Tested on: SARS-CoV-2 NSP3 Mac1
# Assay: Overall hit call (binding in crystallographic soaking or the HTRF-based binding assay)
# Details: not given
# Description: Supplement pnas.2212931120.sd01.xlsx, sheet "Compound Summary" | column: HIT*
row,SMILES,HIT*
1,COC(=O)CC1CN(c2ncnc3[nH]c4cc(F)ccc4c23)CCO1 (stereo not shown) [LL114_0040],Y
2,O=S1(=O)CC(CNc2ncnc3[nH]c4cc(F)ccc4c23)C1 [LRH-0005],Y
3,O=S1(=O)CCC1CNc1ncnc2[nH]c3cc(F)ccc3c12 (stereo not shown) [LRH-0012],Y
4,O[C@@H]1CC[C@H](Nc2ncnc3[nH]c4cc(F)ccc4c23)C1 [LRH-0018],Y
5,O=C(O)[C@@H]1CCC[C@H](Nc2ncnc3[nH]c4cc(F)ccc4c23)C1 [LRH-0022],Y
6,[O-][n+]1cccc(Nc2ncnc3[nH]c4cc(F)ccc4c23)c1 [LRH-0031],Y
7,CN(c1ncnc2[nH]c3cc(F)ccc3c12)C1CCCS(=O)(=O)C1 (stereo not shown) [LRM-0010],Y
8,O=C(O)CC1CC(CNC(=O)c2cncc3sccc23)C1 (stereo not shown) [Z1558],Y
9,CC(Cc1ccco1)C(=O)N[C@@H](CC(=O)O)c1ccc2c(c1)OCO2 (stereo partly shown) [Z1877],Y
10,Cc1oc(CNc2ncnc3[nH]c4ccccc4c23)cc1C(=O)O [Z3124],Y
11,CC(F)(F)c1cncc(C(=O)NC(Cc2cncc(Br)c2)C(=O)O)c1 (stereo not shown) [Z3140],Y
12,O=C(NS(=O)(=O)Cc1ccc(Br)c(F)c1)c1cnn2ccccc12 [Z3209],Y
13,O=C1OCCN1C1CCN(c2ncnc3[nH]c4cc(F)ccc4c23)C1 (stereo not shown) [Z5107],Y
14,O=C(O)Cc1cccc(CNC(=O)c2ncnc3ccsc23)c1 [Z5712],Y
15,O=C(O)Cc1ccc(CNC(=O)c2ccnc3ccsc23)cc1 [Z6625],Y
16,COc1cncc(C(=O)NCCNC(=O)c2ncccc2O)c1 [Z6634],Y

# Target: SARS-CoV-2 NSP3 Mac1 (Severe acute respiratory syndrome coronavirus 2, UniProt P0DTD1)
# Assay: not given
# Format: binding
# Details: PanDDA 1-BDC of the event; compound stock 100 mM, Echo dispense volume 40 nl
row,SMILES,1-BDC
1,O=S1(=O)CC(CNc2ncnc3[nH]c4cc(F)ccc4c23)C1 [LRH-0005],0.1
2,O=C(O)[C@@H]1CCC[C@H](Nc2ncnc3[nH]c4cc(F)ccc4c23)C1 [LRH-0022],0.28
3,[O-][n+]1cccc(Nc2ncnc3[nH]c4cc(F)ccc4c23)c1 [LRH-0031],0.18

# Same assay, conditions: PanDDA 1-BDC of the event; compound stock 100 mM, Echo dispense volume 80 nl
row,SMILES,1-BDC
1,COC(=O)CC1CN(c2ncnc3[nH]c4cc(F)ccc4c23)CCO1 (stereo not shown) [LL114_0040],0.08
2,O=S1(=O)CC(CNc2ncnc3[nH]c4cc(F)ccc4c23)C1 [LRH-0005],0.1
3,O=S1(=O)CCC1CNc1ncnc2[nH]c3cc(F)ccc3c12 (stereo not shown) [LRH-0012],0.06
4,O[C@@H]1CC[C@H](Nc2ncnc3[nH]c4cc(F)ccc4c23)C1 [LRH-0018],0.07
5,O=C(O)[C@@H]1CCC[C@H](Nc2ncnc3[nH]c4cc(F)ccc4c23)C1 [LRH-0022],0.32
6,[O-][n+]1cccc(Nc2ncnc3[nH]c4cc(F)ccc4c23)c1 [LRH-0031],0.17
7,CN(c1ncnc2[nH]c3cc(F)ccc3c12)C1CCCS(=O)(=O)C1 (stereo not shown) [LRM-0010],0.06

# Same assay, conditions: PanDDA event map 1-BDC; crystal soak, Compound_concentration 100 mM; PanDDA run dmso_34 or nohits_35 per dataset
row,SMILES,1-BDC
1,COC(=O)CC1CN(c2ncnc3[nH]c4cc(F)ccc4c23)CCO1 (stereo not shown) [LL114_0040],0.11
2,O=S1(=O)CCC1CNc1ncnc2[nH]c3cc(F)ccc3c12 (stereo not shown) [LRH-0012],0.07
3,O[C@@H]1CC[C@H](Nc2ncnc3[nH]c4cc(F)ccc4c23)C1 [LRH-0018],0.07

# Same assay, conditions: PanDDA event map, 1 minus background density correction; crystal soaking of Mac1
row,SMILES,1-BDC (PanDDA)
1,COC(=O)CC1CN(c2ncnc3[nH]c4cc(F)ccc4c23)CCO1 (stereo not shown) [LL114_0040],0.08
2,O=S1(=O)CC(CNc2ncnc3[nH]c4cc(F)ccc4c23)C1 [LRH-0005],0.1
3,O=S1(=O)CCC1CNc1ncnc2[nH]c3cc(F)ccc3c12 (stereo not shown) [LRH-0012],0.07
4,O[C@@H]1CC[C@H](Nc2ncnc3[nH]c4cc(F)ccc4c23)C1 [LRH-0018],0.07
5,O=C(O)[C@@H]1CCC[C@H](Nc2ncnc3[nH]c4cc(F)ccc4c23)C1 [LRH-0022],0.32
6,[O-][n+]1cccc(Nc2ncnc3[nH]c4cc(F)ccc4c23)c1 [LRH-0031],0.17
7,CN(c1ncnc2[nH]c3cc(F)ccc3c12)C1CCCS(=O)(=O)C1 (stereo not shown) [LRM-0010],0.06

# Same assay, conditions: PanDDA event map; crystal soak, Compound_concentration 100 mM, Echo_dispense_volume 40 nl
row,SMILES,1-BDC
1,COC(=O)CC1CN(c2ncnc3[nH]c4cc(F)ccc4c23)CCO1 (stereo not shown) [LL114_0040],0.08

# Same assay, conditions: crystal soak, Compound_concentration 100 mM, Echo dispense 40 nl; PanDDA run dmso_34 or nohits_35 per dataset
row,SMILES,PanDDA hit?
1,COC(=O)CC1CN(c2ncnc3[nH]c4cc(F)ccc4c23)CCO1 (stereo not shown) [LL114_0040],TRUE
2,O=S1(=O)CCC1CNc1ncnc2[nH]c3cc(F)ccc3c12 (stereo not shown) [LRH-0012],TRUE
3,O[C@@H]1CC[C@H](Nc2ncnc3[nH]c4cc(F)ccc4c23)C1 [LRH-0018],TRUE

# Same assay, conditions: crystal soak, Compound_concentration 100 mM, Echo_dispense_volume 40 nl; PanDDA run (background map) dmso_34, nohits_35 or nohits_62
row,SMILES,PanDDA hit?
1,COC(=O)CC1CN(c2ncnc3[nH]c4cc(F)ccc4c23)CCO1 (stereo not shown) [LL114_0040],TRUE

# Same assay, conditions: crystal soak, compound stock 100 mM, Echo dispense volume 40 nl
row,SMILES,PanDDA hit?
1,O=S1(=O)CC(CNc2ncnc3[nH]c4cc(F)ccc4c23)C1 [LRH-0005],TRUE
2,O=C(O)[C@@H]1CCC[C@H](Nc2ncnc3[nH]c4cc(F)ccc4c23)C1 [LRH-0022],TRUE
3,[O-][n+]1cccc(Nc2ncnc3[nH]c4cc(F)ccc4c23)c1 [LRH-0031],TRUE

# Same assay, conditions: crystal soak, compound stock 100 mM, Echo dispense volume 80 nl
row,SMILES,PanDDA hit?
1,COC(=O)CC1CN(c2ncnc3[nH]c4cc(F)ccc4c23)CCO1 (stereo not shown) [LL114_0040],TRUE
2,O=S1(=O)CC(CNc2ncnc3[nH]c4cc(F)ccc4c23)C1 [LRH-0005],TRUE
3,O=S1(=O)CCC1CNc1ncnc2[nH]c3cc(F)ccc3c12 (stereo not shown) [LRH-0012],TRUE
4,O[C@@H]1CC[C@H](Nc2ncnc3[nH]c4cc(F)ccc4c23)C1 [LRH-0018],TRUE
5,O=C(O)[C@@H]1CCC[C@H](Nc2ncnc3[nH]c4cc(F)ccc4c23)C1 [LRH-0022],TRUE
6,[O-][n+]1cccc(Nc2ncnc3[nH]c4cc(F)ccc4c23)c1 [LRH-0031],TRUE
7,CN(c1ncnc2[nH]c3cc(F)ccc3c12)C1CCCS(=O)(=O)C1 (stereo not shown) [LRM-0010],TRUE

# Same assay, conditions: ligand modeled in structure; compound stock 100 mM, Echo dispense volume 80 nl
row,SMILES,Modeled?
1,O=S1(=O)CC(CNc2ncnc3[nH]c4cc(F)ccc4c23)C1 [LRH-0005],TRUE
2,O=C(O)[C@@H]1CCC[C@H](Nc2ncnc3[nH]c4cc(F)ccc4c23)C1 [LRH-0022],TRUE
3,[O-][n+]1cccc(Nc2ncnc3[nH]c4cc(F)ccc4c23)c1 [LRH-0031],TRUE
4,CN(c1ncnc2[nH]c3cc(F)ccc3c12)C1CCCS(=O)(=O)C1 (stereo not shown) [LRM-0010],TRUE

# Same assay, conditions: ligand modeled in this dataset; crystal soak, Compound_concentration 100 mM
row,SMILES,Modeled?
1,O=S1(=O)CCC1CNc1ncnc2[nH]c3cc(F)ccc3c12 (stereo not shown) [LRH-0012],TRUE
2,O[C@@H]1CC[C@H](Nc2ncnc3[nH]c4cc(F)ccc4c23)C1 [LRH-0018],TRUE

# Same assay, conditions: ligand modeled; crystal soak, Compound_concentration 100 mM, Echo_dispense_volume 40 nl
row,SMILES,Modeled?
1,COC(=O)CC1CN(c2ncnc3[nH]c4cc(F)ccc4c23)CCO1 (stereo not shown) [LL114_0040],TRUE

# Same assay, conditions: ligand occupancy after refinement (phenix.refine); crystal soaking of Mac1
row,SMILES,Refined occupancy
1,COC(=O)CC1CN(c2ncnc3[nH]c4cc(F)ccc4c23)CCO1 (stereo not shown) [LL114_0040],16
2,O=S1(=O)CC(CNc2ncnc3[nH]c4cc(F)ccc4c23)C1 [LRH-0005],20
3,O=S1(=O)CCC1CNc1ncnc2[nH]c3cc(F)ccc3c12 (stereo not shown) [LRH-0012],14
4,O[C@@H]1CC[C@H](Nc2ncnc3[nH]c4cc(F)ccc4c23)C1 [LRH-0018],14
5,O=C(O)[C@@H]1CCC[C@H](Nc2ncnc3[nH]c4cc(F)ccc4c23)C1 [LRH-0022],64
6,[O-][n+]1cccc(Nc2ncnc3[nH]c4cc(F)ccc4c23)c1 [LRH-0031],34
7,CN(c1ncnc2[nH]c3cc(F)ccc3c12)C1CCCS(=O)(=O)C1 (stereo not shown) [LRM-0010],12

# Same assay, conditions: what was observed in density instead of the vendor structure
row,SMILES,Comment (ligand modelled in the crystal structure)
1,O=C(O)[C@@H]1CCC[C@H](Nc2ncnc3[nH]c4cc(F)ccc4c23)C1 [LRH-0022],pyrimido-indole core only
2,[O-][n+]1cccc(Nc2ncnc3[nH]c4cc(F)ccc4c23)c1 [LRH-0031],pyrimido-indole core only
